Measurements published in PubChem BioAssay (NCI).
Converted amounts (≈) assume the structure as drawn. “And” between values parts separate entries of the source, which are not always exact repeats. Equal entries are not always repeated.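 These data come from cells grown in 96-well plates and exposed to compound for 48 hours at five concentrations. The concentration for 50% growth inhibition is given as GI50. TGI denotes the concentration required for complete inhibition of growth.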

Columns and labels:
Experiment in all cases: DTP human tumour cell line panel, 48 h
NCI-H226 lung = tested on: NCI-H226 lung
NCI-H23 lung = tested on: NCI-H23 lung
NCI-H460 lung = tested on: NCI-H460 lung
NCI-H522 lung = tested on: NCI-H522 lung
NCI/ADR-RES ovarian = tested on: NCI/ADR-RES ovarian
OVCAR-3 ovarian = tested on: OVCAR-3 ovarian
OVCAR-4 ovarian = tested on: OVCAR-4 ovarian
OVCAR-5 ovarian = tested on: OVCAR-5 ovarian
OVCAR-8 ovarian = tested on: OVCAR-8 ovarian
PC-3 prostate = tested on: PC-3 prostate
RPMI-8226 leukemia = tested on: RPMI-8226 leukemia
RXF 393 renal = tested on: RXF 393 renal
SF-268 CNS = tested on: SF-268 CNS
SF-295 CNS = tested on: SF-295 CNS
SF-539 CNS = tested on: SF-539 CNS
SK-MEL-2 melanoma = tested on: SK-MEL-2 melanoma
SK-MEL-28 melanoma = tested on: SK-MEL-28 melanoma
SK-MEL-5 melanoma = tested on: SK-MEL-5 melanoma
SK-OV-3 ovarian = tested on: SK-OV-3 ovarian
SN12C renal = tested on: SN12C renal
SNB-19 CNS = tested on: SNB-19 CNS
SNB-75 CNS = tested on: SNB-75 CNS
SR leukemia = tested on: SR leukemia
SW-620 colon = tested on: SW-620 colon
T-47D breast = tested on: T-47D breast
TK-10 renal = tested on: TK-10 renal
U251 CNS = tested on: U251 CNS
UACC-257 melanoma = tested on: UACC-257 melanoma
UACC-62 melanoma = tested on: UACC-62 melanoma
UO-31 renal = tested on: UO-31 renal

In the case of CC1(C)CC(=O)C2=C(C1)NC(SSC1=C(C#N)C(c3ccc(Br)cc3)C3=C(CC(C)(C)CC3=O)N1)=C(C#N)C2c1ccc(Br)cc1 (centres undefined), the TGI (NCI-H226 lung) is reported as > 100 µM and 150 µg/mL, the GI50 (NCI-H23 lung) is reported as greater than 150 mg/L and the TGI (NCI-H23 lung) is reported as > 100 µM and 150 µg/mL. The GI50 (NCI-H460 lung) was greater than 150 mg/L, the TGI (NCI-H460 lung) was > 100 µM and 150 µg/mL and the GI50 (NCI-H522 lung) was 30 mg/L (≈ 38.6 µM). For the same compound, the TGI (NCI-H522 lung) was > 100 µM and 53.5 µg/mL, the GI50 (NCI/ADR-RES ovarian) was 28.9 mg/L (≈ 37.2 µM) and the TGI (NCI/ADR-RES ovarian) was > 100 µM and 64.1 µg/mL. The GI50 (OVCAR-3 ovarian) was greater than 150 mg/L, the TGI (OVCAR-3 ovarian) was > 100 µM and 150 µg/mL and the GI50 (OVCAR-4 ovarian) was 34.4 mg/L (≈ 44.2 µM). The TGI (OVCAR-4 ovarian) was > 100 µM and 84.8 µg/mL, the GI50 (OVCAR-5 ovarian) was greater than 150 mg/L and the TGI (OVCAR-5 ovarian) was > 100 µM and 150 µg/mL. For the same compound, the GI50 (OVCAR-8 ovarian) was 48.6 mg/L (≈ 62.5 µM), the TGI (OVCAR-8 ovarian) was > 100 µM and 150 µg/mL and the GI50 (PC-3 prostate) was 91.4 mg/L (≈ 118 µM). The TGI (PC-3 prostate) was > 100 µM and 150 µg/mL, the GI50 (RPMI-8226 leukemia) was 30.6 mg/L (≈ 39.5 µM) and the TGI (RPMI-8226 leukemia) was > 100 µM and 79.3 µg/mL. The GI50 (RXF 393 renal) was 41.6 mg/L (≈ 53.5 µM), the TGI (RXF 393 renal) was > 100 µM and 123 µg/mL and the GI50 (SF-268 CNS) was greater than 150 mg/L. The TGI (SF-268 CNS) was > 100 µM and 150 µg/mL, the GI50 (SF-295 CNS) was greater than 150 mg/L and the TGI (SF-295 CNS) was > 100 µM and 150 µg/mL. The GI50 (SF-539 CNS) was greater than 150 mg/L, the TGI (SF-539 CNS) was > 100 µM and 150 µg/mL and the GI50 (SK-MEL-2 melanoma) was greater than 150 mg/L. For the same compound, the TGI (SK-MEL-2 melanoma) was > 100 µM and 150 µg/mL, the GI50 (SK-MEL-28 melanoma) was 48.4 mg/L (≈ 62.3 µM) and the TGI (SK-MEL-28 melanoma) was > 100 µM and 131 µg/mL. For the same compound, the GI50 (SK-MEL-5 melanoma) was greater than 150 mg/L, the TGI (SK-MEL-5 melanoma) was > 100 µM and 150 µg/mL and the GI50 (SK-OV-3 ovarian) was greater than 150 mg/L. For the same compound, the TGI (SK-OV-3 ovarian) was > 100 µM and 150 µg/mL, the GI50 (SN12C renal) was 71.2 mg/L (≈ 91.7 µM) and the TGI (SN12C renal) was > 100 µM and 150 µg/mL. The GI50 (SNB-19 CNS) was greater than 150 mg/L, the TGI (SNB-19 CNS) was > 100 µM and 150 µg/mL and the GI50 (SNB-75 CNS) was greater than 150 mg/L. For the same compound, the TGI (SNB-75 CNS) was 150 mg/L (≈ 193 µM), the GI50 (SR leukemia) was 22.8 mg/L (≈ 29.4 µM) and the TGI (SR leukemia) was > 100 µM and 66.2 µg/mL. The GI50 (SW-620 colon) was 29.3 mg/L (≈ 37.7 µM), the TGI (SW-620 colon) was > 100 µM and 56.1 µg/mL and the GI50 (T-47D breast) was 35 mg/L (≈ 45.1 µM). The TGI (T-47D breast) was > 100 µM and 119 µg/mL, the GI50 (TK-10 renal) was greater than 150 mg/L and the TGI (TK-10 renal) was > 100 µM and 150 µg/mL. For the same compound, the GI50 (U251 CNS) was greater than 150 mg/L, the TGI (U251 CNS) was > 100 µM and 150 µg/mL and the GI50 (UACC-257 melanoma) was greater than 150 mg/L. For the same compound, the TGI (UACC-257 melanoma) was > 100 µM and 150 µg/mL, the GI50 (UACC-62 melanoma) was 122 mg/L (≈ 157 µM) and the TGI (UACC-62 melanoma) was > 100 µM and 150 µg/mL. For the same compound, the GI50 (UO-31 renal) was 76.3 mg/L (≈ 98.3 µM) and the TGI (UO-31 renal) was > 100 µM and 150 µg/mL.
